According to patent US9035056B2, “Pyrido[4,3-b]indole and pyrido[3,4-b]indole derivatives and methods of use” (Medivation Technologies, Inc., priority 2011, dated 2015):

Tests used:
[1] = molecular target: T1, rat adrenergic α1A receptor (Rattus norvegicus, UniProt P43140); assay: Adrenergic α1A radioligand binding ([3H]Prazosin); settings: 0.1 μM compound; read-out: Percentage inhibition of ligand binding, Adrenergic α1A
T1 construct: rat adrenergic α1A receptor obtained from Wistar Rat submaxillary glands; from tissue; host or cells: Wistar rat submaxillary glands
T1 sequence (P43140 1-466): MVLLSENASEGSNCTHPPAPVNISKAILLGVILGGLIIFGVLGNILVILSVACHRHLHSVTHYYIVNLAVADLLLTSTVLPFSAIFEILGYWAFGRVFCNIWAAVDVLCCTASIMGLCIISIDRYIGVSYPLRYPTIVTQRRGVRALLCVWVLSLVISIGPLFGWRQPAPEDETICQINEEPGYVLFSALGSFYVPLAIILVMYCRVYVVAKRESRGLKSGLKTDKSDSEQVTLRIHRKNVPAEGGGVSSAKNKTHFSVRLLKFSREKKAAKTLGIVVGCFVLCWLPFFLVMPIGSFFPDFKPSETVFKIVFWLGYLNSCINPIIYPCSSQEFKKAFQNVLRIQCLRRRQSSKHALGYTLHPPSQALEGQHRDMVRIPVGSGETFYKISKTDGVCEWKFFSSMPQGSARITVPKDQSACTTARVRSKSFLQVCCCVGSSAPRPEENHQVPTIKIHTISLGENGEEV
Experimental: To evaluate in radioligand binding assays the activity of compounds of the invention, rat adrenergic α1A receptor obtained from Wistar Rat submaxillary glands (Michel, A. et al, Br. J. Pharmacol. 98:883, 1989) in a modified Tris-HCl buffer (50 mM Tris-HCl buffer, pH 7.4, 0.5 mM EDTA) was used. Compounds of the invention were incubated with 0.25 nM [^3H]Prazosin for 60 min at 25° C. Non-specific binding was estimated in the presence of 10 μM phentolamine. Receptor proteins were filtered and washed, the filters were then counted to determine [^3H]Prazosin specifically bound. Compounds of the invention were screened at 1 μM or lower, using 1% DMSO as vehicle. Biochemical assay results are presented as the percent inhibition of specific binding in Table 3.

[2] = molecular target: T2, human recombinant serotonin (5-Hydroxytryptamine) 5-HT7 receptor (Homo sapiens, UniProt P34969); assay: Serotonin 5-HT7 radioligand binding ([3H]LSD); settings: 0.1 μM compound; read-out: Percentage inhibition of ligand binding, Serotonin 5-HT7
T2 construct: expressed in transfected cells; host or cells: CHO
T2 sequence (P34969 whole entry): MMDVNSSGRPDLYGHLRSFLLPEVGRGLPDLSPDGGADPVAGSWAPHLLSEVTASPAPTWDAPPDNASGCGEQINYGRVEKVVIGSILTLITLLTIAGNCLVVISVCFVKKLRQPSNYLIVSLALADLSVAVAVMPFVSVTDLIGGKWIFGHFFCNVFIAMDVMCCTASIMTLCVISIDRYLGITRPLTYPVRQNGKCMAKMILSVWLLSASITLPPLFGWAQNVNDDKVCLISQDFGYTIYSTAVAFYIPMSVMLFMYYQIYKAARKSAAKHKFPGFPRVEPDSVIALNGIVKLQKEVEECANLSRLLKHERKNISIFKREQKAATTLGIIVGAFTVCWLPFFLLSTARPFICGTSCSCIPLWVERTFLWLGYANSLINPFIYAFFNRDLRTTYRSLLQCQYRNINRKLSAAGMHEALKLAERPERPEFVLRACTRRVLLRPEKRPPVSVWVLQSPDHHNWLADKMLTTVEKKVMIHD
Experimental: To evaluate in radioligand binding assays the activity of compounds of the invention, human recombinant serotonin (5-Hydroxytryptamine) 5-HT7 receptor expressed in Chinese hamster ovary (CHO) cells (Roth, B. et al, J. Pharmacol. Exp. Ther. 268:1403, 1994; Shen, Y. et al, J. Biol. Chem. 268:18200, 1993) in a modified Tris-HCl buffer (50 mM Tris-HCl, pH 7.4, 10 mM MgCl2, 0.5 mM EDTA) was used. Compounds of invention were incubated with 5.5 nM [^3H] Lysergic acid diethylamide (LSD) for 2 h at 25° C. Non-specific binding was estimated in the presence of 10 μM Serotonin (5-HT). Receptor proteins were filtered and washed, the filters were then counted to determine [^3H]LSD specifically bound. Compounds were screened at 1 μM or lower, using 1% DMSO as vehicle. Biochemical assay results are presented as the percent inhibition of specific binding in Table 5.

[3] = molecular target: T3, human recombinant adrenergic α2C receptor (Homo sapiens, UniProt P18825); assay: Adrenergic α2C radioligand binding ([3H]MK-912); settings: 0.1 μM compound; read-out: Percentage inhibition of ligand binding, Adrenergic α2C
T3 construct: expressed in transfected cells; host or cells: insect Sf9 cells
T3 sequence (P18825 1-462): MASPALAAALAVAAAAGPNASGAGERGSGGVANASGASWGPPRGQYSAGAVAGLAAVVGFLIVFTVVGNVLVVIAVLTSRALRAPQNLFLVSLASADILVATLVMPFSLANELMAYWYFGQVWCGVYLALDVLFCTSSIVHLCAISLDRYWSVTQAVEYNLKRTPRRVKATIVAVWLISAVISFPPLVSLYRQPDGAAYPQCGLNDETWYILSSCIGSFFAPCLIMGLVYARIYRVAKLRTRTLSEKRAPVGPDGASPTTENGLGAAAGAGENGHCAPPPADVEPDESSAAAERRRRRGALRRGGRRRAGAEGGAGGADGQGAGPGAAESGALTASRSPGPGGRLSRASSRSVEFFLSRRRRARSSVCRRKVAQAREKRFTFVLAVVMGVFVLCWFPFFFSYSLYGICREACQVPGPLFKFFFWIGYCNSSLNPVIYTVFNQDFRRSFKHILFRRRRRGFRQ
Experimental: To evaluate in radioligand binding assays the activity of compounds of the invention, human recombinant adrenergic α2C receptor expressed in insect Sf9 cells (Uhlen, S. et al, J. Pharmacol. Exp. Ther. 271:1558, 1994) in a modified Tris-HCl buffer (50 mM Tris-HCl, pH 7.4, 12.5 mM MgCl2, 2 mM EDTA) was used. Compounds of the invention were incubated with 1 nM [^3H]MK-912 for 60 min at 25° C. Non-specific binding was estimated in the presence of 10 μM WB-4101. Receptor proteins were filtered and washed, the filters were then counted to determine [^3H]MK-912 specifically bound. Compounds were screened at 1 μM or lower, using 1% DMSO as vehicle. Biochemical assay results are presented as the percent inhibition of specific binding in Table 3.

| SMILES | inhibition at 0.1 µM [1] | inhibition at 0.1 µM [2] | inhibition at 0.1 µM [3] |
| --- | --- | --- | --- |
| Cc1ccc2c(c1)c1c(n2/C=C2\CCCc3ccccc32)CCN(C)C1 [i-3] | 18% | 96% | 72% |
| Cc1ccc2c(c1)c1c(n2/C=C2/CCCc3ccccc32)CCN(C)C1 [i-2] | 51% | 97% | 90% |
